Assay results as given in US9150526B2, “Biaryl-propionic acid derivatives and their use as pharmaceuticals” (SANOFI, priority 2013, dated 2015).

System: Recombinant human cathepsin A
Experiment: Cathepsin A inhibitory activity (Bodipy FL-bradykinin substrate, microfluidic capillary electrophoresis)
Type: biochemical
Details: read-out: CATH A IC50
Description: Pharmacological Tests a) Cathepsin a Inhibitory Activity
Recombinant human cathepsin A (residues 29-480, with a C-terminal 10-His tag; R&D Systems, #1049-SE) was proteolytically activated with recombinant human cathepsin L (R&D Systems, #952-CY). Briefly, cathepsin A was incubated at 10 μg/ml with cathepsin L at 1 μg/ml in activation buffer (25 mM 2-(morpholin-4-yl)-ethanesulfonic acid (MES), pH 6.0, containing 5 mM dithiothreitol (DTT)) for 15 min at 37° C.
The activated cathepsin A was diluted in assay buffer (25 mM MES, pH 5.5, containing 5 mM DTT) and mixed with the test compound (dissolved in assay buffer containing (v/v) 3% DMSO) or, in the control experiments, with the vehicle in a multiple assay plate. After incubation for 15 min at room temperature, as substrate then bradykinin carrying an N-terminal ®Bodipy FL (4,4-difluoro-5,7-dimethyl-4-bora-3a,4a-diaza-s-indacene-3-propionyl) label (JPT Peptide Technologies GmbH; dissolved in assay buffer) was added to the mixture. The final concentration of cathepsin A was 833 ng/ml and the final concentration of labeled bradykinin 2 μM. After incubation for 15 min at room temperature the reaction was stopped by the addition of stop buffer (130 mM 2-(4-(2-hydroxy-ethyl)-piperazin-1-yl)-ethanesulfonic acid, pH 7.4, containing (v/v) 0.013% ®Triton X-100, 0.13% Coating Reagent 3 (Caliper Life Sciences), 6.5% DMSO and 20 μM ebelactone B (Sigma, # E0886)).
Uncleaved substrate and product were then separated by a microfluidic capillary electrophoresis on a LabChip® 3000 Drug Discovery System (12-Sipper-Chip; Caliper Life Sciences) and quantified by determination of the respective peak areas. Substrate turnover was calculated by dividing product peak area by the sum of substrate and product peak areas, and the enzyme activity and the inhibitory effect of the test compound thus quantified.

Structure (SMILES) | IC50
COc1cccc(OC)c1-c1cc(C(CC(=O)O)c2nnc(C)o2)cc(C(F)(F)F)c1 (centres unmarked) [compound 205] | 2 nM
COc1ccc(C(C)C)cc1-c1cc(C(CC(=O)O)c2nnc(C)o2)cc(C(F)(F)F)c1 (centres unmarked) [compound 204] | 31 nM
COc1ccccc1-c1cccc(C(CC(=O)O)c2nnc(C)o2)c1 (centres unmarked) [compound 140] | 61 nM
COc1c(Cl)cccc1-c1cccc(C(CC(=O)O)c2nccs2)c1 (centres unmarked) [compound 44] | 1280 nM
COc1cccc(Cl)c1-c1cccc(C(CC(=O)O)c2nccs2)c1 (centres unmarked) [compound 31] | 292 nM
COc1ccc(CO)cc1-c1cccc(C(CC(=O)O)c2nnc(C)o2)c1 (centres unmarked) [compound 141] | 72 nM
COc1ccc(C(C)(C)C)cc1-c1cccc(C(CC(=O)O)c2nnc(C)o2)c1 (centres unmarked) [compound 9] | 61 nM
COc1ccc(Cl)cc1-c1cccc(C(CC(=O)O)c2nccs2)c1 (centres unmarked) [compound 1] | 160 nM
COc1ccc(Cl)cc1-c1cc(F)cc(C(CC(=O)O)c2nnc(C)o2)c1 (centres unmarked) [compound 166] | 89 nM
COc1ccc(OC(F)(F)F)cc1-c1cc(F)cc(C(CC(=O)O)c2nnc(C)o2)c1 (centres unmarked) [compound 168] | 165 nM
COc1cccc(Cl)c1-c1cccc(C(CC(=O)O)c2nnc(C)o2)c1 (centres unmarked) [compound 142] | 80 nM
COc1ccc(OC)c(-c2cc(C(CC(=O)O)c3nnc(C)o3)cc(C(F)(F)F)c2)c1 (centres unmarked) [compound 201] | 14 nM
COc1cccc(OC)c1-c1cccc(C(CC(=O)O)c2nnc(C)o2)c1 (centres unmarked) [compound 135] | 17 nM
COc1ccc(-c2cccc(C(CC(=O)O)c3nccs3)c2)c(OC)c1 (centres unmarked) [compound 29] | 185 nM
COc1ccc(CO)cc1-c1cccc(C(CC(=O)O)c2nccs2)c1 (centres unmarked) [compound 33] | 333 nM
COc1c(-c2cccc(C(CC(=O)O)c3nccs3)c2)cccc1C(F)(F)F (centres unmarked) [compound 49] | 7000 nM

The remaining lines, values ahead:

IC50 | Structure (SMILES)
96 nM | COc1cccc(Cl)c1-c1cc(F)cc(C(CC(=O)O)c2ncc(C)s2)c1 (centres unmarked) [compound 105]
269 nM | COc1ccc(OC(F)(F)F)cc1-c1cccc(C(CC(=O)O)c2ncc(C)s2)c1 (centres unmarked) [compound 60]
18 nM | COc1ccc(OC)c(-c2cc(Cl)cc(C(CC(=O)O)c3ncc(C)s3)c2)c1OC (centres unmarked) [compound 72]
10 nM | COc1ccccc1-c1cc(Cl)cc(C(CC(=O)O)c2nnc(C)o2)c1 (centres unmarked) [compound 176]
571 nM | COc1c(C)cccc1-c1cccc(C(CC(=O)O)c2nnc(C)o2)c1 (centres unmarked) [compound 151]
53 nM | COc1cccc(Cl)c1-c1cc(Cl)cc(C(CC(=O)O)c2ncc(C)s2)c1 (centres unmarked) [compound 84]
56 nM | COc1ccc(OC)c(-c2cccc(C(CC(=O)O)c3ncc(C)s3)c2)c1OC (centres unmarked) [compound 52]
85 nM | COc1ccc(C)cc1-c1cccc(C(CC(=O)O)c2ncc(C)s2)c1 (centres unmarked) [compound 53]
21 nM | COc1ccccc1-c1cc(Cl)cc(C(CC(=O)O)c2ncc(C)s2)c1 (centres unmarked) [compound 75]
29 nM | COc1ccc(CO)cc1-c1cc(Cl)cc(C(CC(=O)O)c2ncc(C)s2)c1 (centres unmarked) [compound 77]
24 nM | CCOc1ccccc1-c1cc(Cl)cc(C(CC(=O)O)c2nnc(C)o2)c1 (centres unmarked) [compound 177]
164 nM | COc1c(C)cccc1-c1cc(Cl)cc(C(CC(=O)O)c2ncc(C)s2)c1 (centres unmarked) [compound 93]
171 nM | COc1cccc(F)c1-c1cccc(C(CC(=O)O)c2ncc(C)s2)c1 (centres unmarked) [compound 59]
44 nM | COc1cc(C)cc(OC)c1-c1cccc(C(CC(=O)O)c2ncc(C)s2)c1 (centres unmarked) [compound 15]
155 nM | COc1cccc(Cl)c1-c1cccc(C(CC(=O)O)c2ncc(C)s2)c1 (centres unmarked) [compound 58]
657 nM | COc1ccc(Cl)cc1-c1cccc(C(CC(=O)O)c2nc(C)c(C)s2)c1 (centres unmarked) [compound 19]
53 nM | COc1ccc(-c2cc(Cl)cc(C(CC(=O)O)c3ncc(C)s3)c2)c(OC)c1 (centres unmarked) [compound 83]
16 nM | COc1cccc(F)c1-c1cc(Cl)cc(C(CC(=O)O)c2ncc(C)s2)c1 (centres unmarked) [compound 71]
246 nM | COc1cc(F)ccc1-c1cc(F)cc(C(CC(=O)O)c2ncc(C)s2)c1 (centres unmarked) [compound 123]
